In patent US20160313301A1, “METHOD FOR PREDICTING ANTITUMOR EFFICACY OF HSP90 INHIBITOR IN CANCER TREATMENT” (NIPPON KAYAKU KABUSHIKI KAISHA, priority 2013, published 2016):

What was measured:
[1] = system: human breast cancer cells JIMT-1; assay: Anti-tumor test in mice transplanted subcutaneously with tumor (JIMT-1); type: in vivo; conditions: JIMT-1 s.c. in mice; 40 mg/kg three times at 7 day intervals
Procedure: (§1) Human ovarian cancer cell lines OC-10-JCK, OC-11-JCK, and TOGY-18, and a human breast cancer cell line MC-19-JCK were obtained from Central Institute for Experimental Animals. Cryopreserved tumor pieces were thawed, and then OC-10-JCK, OC-11-JCK, and MC-19-JCK were transplanted subcutaneously to SCID mice, while TOGY-18 was transplanted subcutaneously to nude mice. After the tumors were grown, the tumors were removed and cut into tumor pieces. The tumor pieces were transplanted subcutaneously to SCID mice or nude mice with trocars. The tumors were maintained by repeated transplantation in the same manner as described above to prepare tumors to be transplanted. Human ovarian cancer cell lines ES-2, SK-OV-3, OV-90, and TOV-21G, and a human lung cancer cell line NCI-H1975 were obtained from American Type Culture Collection (ATCC). The SK-OV-3 and NCI-H1975 cell lines were grown in recommended culture media, of which about 1×10^7 cells were suspended into HBSS and then injected subcutaneously to SCID mice. After the cells formed tumors, the tumors were removed and cut into tumor pieces. The tumor pieces were transplanted subcutaneously to SCID mice with trocars. The tumors were maintained by repeated transplantation in the same manner as described above to prepare tumors to be transplanted. […]

[2] = system: human ovarian cancer cell line OC-10-JCK; assay: Anti-tumor test in mice transplanted subcutaneously with tumor (OC-10-JCK); type: in vivo; conditions: OC-10-JCK s.c. in mice; 40 mg/kg tail vein three times at 4 day intervals
Procedure: as §1

CC(C)c1cc(-c2n[nH]c(=O)n2-c2ccc(CN3CCN(C)CC3)cc2)c(O)cc1O [A-1, 5-(2,4-dihydroxy-5-isopropyl-phenyl)-4-[4-(4-methyl-piperazin-1-ylmethyl)-phenyl]-2,4-dihydro-[1,2,4]triazol-3-one]
T/C % (lowest value from the beginning to the 21st day of administration) [1]: 34.9%
T/C % (lowest value from the beginning to the 21st day of administration) [2]: 50.2%
